Measured values from patent US11548894B2, “Benzamide or benzamine compounds useful as anticancer agents for the treatment of human cancers” (The Board of Regents of the University of Texas System, priority 2015, dated 2023).
Where two headings read alike, the source gives them in different places.

Legend:
[1] = S9 Metabolism Assay (half-life by substrate depletion); format: in vitro ADME; details: female, ICR/CD-1, S9 fractions, pH 7.5; mouse S9, 2 μM compound; time plotted in min; read-out: S9 T1/2
Method: Female ICR/CD-1 mouse S9 fractions were purchased from Celsis/In Vitro Technologies (Baltimore, Md.). 25 μl (0.5 mg) of S9 protein was added to a 15 ml glass screw cap tube. 350 μl of a 50 mM Tris, pH 7.5 solution, containing the compound of interest was added on ice. The final concentration of compound after addition of all reagents was 2 μM. 125 μl of an NADPH-regenerating system (1.7 mg/ml NADP, 7.8 mg/ml glucose-6-phosphate, 6 U/ml glucose-6-phosphate dehydrogenase in 2% w/v NaHCO3/10 mm MgCl2) was added for analysis of Phase I metabolism. Uridine 5′-diphospho-α-D-glucuronic acid (UDPGA 1.9 mg/ml) and 3′-phosphoadenosine-5′-phosphosulphate (PAPS, 100 mg/ml) were additionally added for phase II reactions. The tube was then placed in a 37° C. shaking water bath. At varying time points after addition of phase I and phase II cofactors, the reaction was stopped by the addition of 0.5 ml of methanol containing 0.2% formic acid and 200 ng/ml internal standard (either n-benzylbenzamide or tolbutamide, Sigma, St. Louis, Mo.). The samples were incubated 10′ at RT and then spun at 16,100×g for 5 min in a microcentrifuge. The supernatant was analyzed by LC-MS/MS. Metabolism of 7-ethoxycoumarin was used to monitor […] performance. Analytical methods were developed for each compound using an Applied Biosystems (Foster City, Calif.) 4000-QTrap, a combination triple quadrupole/ion trap instrument. The parent ion and the two most prominent daughter ions were followed to confirm compound identity, although only the most abundant daughter was used for quantitation. A Shimadzu (Columbia, Md.) Prominence LC with Agilent C18 XDB column (5 micron packing; 50×4.6 mm) was used for chromatography.
The method described in McNaney, et al (McNaney, C A, D M Drexler, S Hnatyshyn, T A Zvyaga, J O Knipe, J V Belcastro, and M Sanders. 2008. An automated liquid chromatography-mass spectrometry process to determine metabolic stability half-life and intrinsic clearance of drug candidates by substrate depletion. Assay and Drug Development Technologies 6:121-129. Determination of Plasma and Brain Pharmacokinetics) was used with modification for determination of metabolic stability half-life by substrate depletion. A “% remaining” value was used to assess metabolic stability of a compound over time. The LC/MS/MS peak area of the incubated sample at each time point was divided by the LC/MS/MS peak area of the time 0 (TO) sample and multiplied by 100. The natural Log (LN) of the % remaining of compound was then plotted versus time (in min) and a linear regression curve plotted going through y-intercept at LN(100).

Mut6 cells (TD-NSC) = experiment: luminescence-based Celltiter-Glo cell viability assay (ATP levels) on Mut6 tumor derived neuronal stem cells; set-up: species or system mouse; details: ATP activity as measure of viability, 96 hours, read-out: EC50 (TD-NSC)
Description: A mouse colony with 100% incidence of GBM and with conditional knockout of p53, pTEN and NF1 genes (Mut6; glioblastoma) was used to isolate primary neuronal stem cells from GBM tumors cultured in 5% Oxygen and in serum free media with defined growth factors. Primary cells from multiple tumors were pooled for high throughput screening with controls against the University of Texas Southwestern (UTSW) compound file, which encompasses ˜200,000 synthetic compounds that represent a large chemical space from several commercial vendors, including 1200 marketed drugs from the Prestwick Chemical Library®, and 600 compounds that went to pre-clinical tests from the NIH library.
A luminescence-based Celltiter-Glo® assay was performed to measure cell viability, using ATP levels as the readout. In brief, opaque-walled multiwell plates with Mut6 cells in culture medium (25 μl per well, 384-well plates) were prepared. Control wells containing medium without cells were prepared to obtain a value for background luminescence. Test compounds were added to experimental wells, and incubated according to culture protocol. The plate and its contents were incubated at 37° C., 5% […] for 96 hours. An ATP standard curve was generated immediately prior to adding the CellTiter-Glo® Reagent. A volume of CellTiter-Glo® Reagent equal to the volume of cell culture medium present in each well (25 μl of reagent to 25 μl of medium containing cells for a 384-well plate) was added. The contents were mixed for 2 minutes on an orbital shaker to induce cell lysis. The plate was allowed to incubate at room temperature for 10 minutes to stabilize the luminescent signal and luminescence recorded. (e.g. GloMax®, Lumistar, SPECTROstar, PHERAstar FS).
Compound 4C12 served as initial lead compound for analog development and for additional studies. […] See Wager, T T et al, “Moving beyond rules: the development of a central nervous system multi-parameter-optimization (CNS MPO) approach to enable alignment of drug-like properties,” ACS Chem. Neurosci. 1(6): 435-49 (2010). IC50 curves for the analog compounds plotted as ATP activity (y axis, a measure of viability) vs. concentration (nM) (x-axis) are shown in FIG. 9.

half-life at 2 μM [1] [h]	EC50 (Mut6 cells (TD-NSC); Mus musculus, 96 h) [nM]	EC50 (Mut6 cells (TD-NSC)) [nM]	SMILES
1.89	33		CCN1CCC[C@@H]1CNC(=O)c1ccc(Sc2ccc(F)cc2)c([N+](=O)[O-])c1 [DS-1-031, (R)—N-((1-ethylpyrrolidin-2-yl)methyl)-4-((4-fluorophenyl)thio)-3-nitrobenzamide]
1.48	51		CCN1CCCC1CNC(=O)c1ccc(Sc2ccc(Cl)cc2)c([N+](=O)[O-])c1 (stereo not drawn) [DS-1-163, 4-((4-chlorophenyl)thio)-N-((1-ethylpyrrolidin-2-yl)methyl)-3-nitrobenzamide]
0.587	88		CCN1CCCC1CNC(=O)c1ccc(Sc2cccc(F)c2)c([N+](=O)[O-])c1 (stereo not drawn) [DS-1-069, N-((1-ethylpyrrolidin-2-yl)methyl)-4-((3-fluorophenyl)thio)-3-nitrobenzamide]
0.683	87		CCN1CCCC1CNC(=O)c1ccc(Sc2ccc(F)cc2)c(F)c1 (stereo not drawn) [DS-2-053, N-((1-ethylpyrrolidin-2-yl)methyl)-3-fluoro-4-((4-fluorophenyl)thio)benzamide]
1.54	150		CCN1CCCC1CNC(=O)c1ccc(Sc2ccncc2)c([N+](=O)[O-])c1 (stereo not drawn) [DS-1-129, N-((1-ethylpyrrolidin-2-yl)methyl)-3-nitro-4-(pyridin-4-ylthio)benzamide]
0.445	58		CC1C2CCCN2CCN1C(=O)c1ccc(Sc2ccc(F)cc2)c([N+](=O)[O-])c1 (stereo not drawn) [DS-1-279, (4-((4-fluorophenyl)thio)-3-nitrophenyl)(1-methylhexahydropyrrolo[1,2-a]pyrazin-2(1H)-yl)methanone]
1.08	53		CCN1CCCC1CNC(=O)c1ccc(Sc2ccc(F)cc2)c(C#N)c1 (stereo not drawn) [DS-1-227, 3-cyano-N-((1-ethylpyrrolidin-2-yl)methyl)-4-((4-fluorophenyl)thio)benzamide]
0.357	36		CCN1CCCC1CNCc1ccc(Sc2ccc(F)cc2)c([N+](=O)[O-])c1 (stereo not drawn) [DS-1-079, 1-(1-ethylpyrrolidin-2-yl)-N-(4-((4-fluorophenyl)thio)-3-nitrobenzyl)methanamine]
1.98		45	CCN1CCCC1CNC(=O)c1ccc(Sc2ccc(F)cc2)c([N+](=O)[O-])c1 (stereo not drawn) [DS-1-033, N-((1-ethylpyrrolidin-2-yl)methyl)-4-((4-fluorophenyl)thio)-3-nitrobenzamide]
1.1	31		CCN1CCC[C@H]1CNC(=O)c1ccc(Sc2ccc(F)cc2)c([N+](=O)[O-])c1 [DS-1-053, (S)—N-((1-ethylpyrrolidin-2-yl)methy)-4-((4-fluorophenyl)thio)-3-nitrobenzamide]
1.56	42		O=C(NCCCN1CCOCC1)c1ccc(Sc2ccc(F)cc2)c([N+](=O)[O-])c1 [DS-1-283, 4-((4-fluorophenyl)thio)-N-(3-morpholinopropyl)-3-nitrobenzamide]
1.96			CCN1CCCC1CNC(=O)c1ccc(Oc2ccc(F)cc2)c(C#N)c1 (stereo not drawn) [DS-1-311, 3-cyano-N-((1-ethylpyrrolidin-2-yl)methyl)-4-(4-fluorophenoxy)benzamide]
0.668			N#Cc1cc(C(=O)NCCN2CCOCC2)ccc1Sc1ccc(F)cc1 [DS-2-027, 3-cyano-4-((4-fluorophenyl)thio)-N-(2-morpholinoethyl)benzamide]
	192		CCN1CCCC1CNC(=O)c1ccc(SC2CCCCC2)c([N+](=O)[O-])c1 (stereo not drawn) [DS-1-139, 4-(cyclohexylthio)-N-((1-ethylpyrrolidin-2-yl)methyl)-3-nitrobenzamide]
	> 1000		CC[N+]1(C)CCCC1CNC(=O)c1ccc(Sc2ccc(F)cc2)c([N+](=O)[O-])c1 (stereo not drawn) [DS-1-119, 1-ethyl-2-((4-((4-fluorophenyl)thio)-3-nitrobenzamido)methyl)-1-methylpyrrolidin-1-ium Iodide]
	125		CCN1CCCC1CNC(=O)c1ccc(Sc2ccc3ccccc3n2)c([N+](=O)[O-])c1 (stereo not drawn) [JCH-127, N-((1-ethylpyrrolidin-2-yl)methyl)-3-nitro-4-(quinolin-2-ylthio)benzamide]
